From PubChem BioAssay (NCI)
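Tested at 5 concentrations; 48 h exposure; 96-well plates; endpoints linearly interpolated, else capped at highest concentration. TGI: total growth inhibition.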

Columns and labels:
Test in all cases: NCI-60 cell line screen, 48 h
[1] = system: MDA-N
[2] = system: DMS 273 small cell lung
[3] = system: ACHN renal
[4] = system: HCT-116 colon
[5] = system: U251 CNS
[6] = system: XF 498 CNS
[7] = system: KM12 colon
[8] = system: EKVX NSCLC
[9] = system: UO-31 renal
[10] = system: M19-MEL melanoma
[11] = system: MOLT-4 leukemia
[12] = system: OVCAR-5 ovarian
[13] = system: DMS 114 small cell lung
[14] = system: RXF-631 renal
[15] = system: SK-MEL-5 melanoma
[16] = system: COLO 205 colon
[17] = system: MALME-3M melanoma
[18] = system: UACC-62 melanoma
[19] = system: HOP-62 NSCLC
[20] = system: SNB-19 CNS
[21] = system: RXF 393 renal
[22] = system: SR leukemia
[23] = system: TK-10 renal
[24] = system: SK-OV-3 ovarian
[25] = system: SNB-75 CNS
[26] = system: SF-295 CNS
[27] = system: IGROV1 ovarian
[28] = system: UACC-257 melanoma
[29] = system: SK-MEL-2 melanoma
[30] = system: SK-MEL-28 melanoma
[31] = system: K-562 leukemia
[32] = system: RPMI-8226 leukemia
[33] = system: 786-0 renal
[34] = system: NCI-H226 lung
[35] = system: CCRF-CEM leukemia
[36] = system: NCI-H522 lung
[37] = system: SF-539 CNS
[38] = system: LOX IMVI melanoma
[39] = system: SNB-78 CNS
[40] = system: DLD-1 colon
[41] = system: HT29 colon
[42] = system: KM20L2 colon
[43] = system: OVCAR-8 ovarian
[44] = system: SF-268 CNS
[45] = system: SW-620 colon
[46] = system: CAKI-1 renal
[47] = system: HL-60(TB) leukemia
[48] = system: OVCAR-4 ovarian
[49] = system: NCI-H460 lung
[50] = system: SN12C renal
[51] = system: A549 NSCLC
[52] = system: LXFL 529 NSCLC
[53] = system: NCI-H23 lung
[54] = system: OVCAR-3 ovarian
[55] = system: M14 melanoma
[56] = system: HCT-15 colon
[57] = system: A498 renal
[58] = system: HCC-2998 colon
[59] = system: HOP-18 NSCLC

For `CCN(CC)c1ccc(C(=C2C=CC(=[N+](CC)CC)C=C2)c2ccc(N(CC)CC)cc2)cc1`, which TGI [1] is on record?
Its TGI is 1.16 µM.

And the TGI [2]?
Its TGI is 1.15 µM.

And the TGI [3]?
Its TGI is 0.348 µM.

What about the TGI [4] of the same molecule?
Its TGI is 1.31 µM.

And the TGI [5]?
Its TGI is 1.31 µM.

What about the TGI [6] of the same molecule?
The TGI was 0.0815 µM.

What about the TGI [7] of the same molecule?
The TGI was 1.18 µM.

What about the TGI [8] of the same molecule?
The TGI was 1.54 µM.

And the TGI [9]?
Its TGI is 0.724 µM.

And the TGI [10]?
Its TGI is 1.31 µM.

And the TGI [11]?
Its TGI is 1.78 µM.

What about the TGI [12] of the same molecule?
Its TGI is 1.06 µM.

What about the TGI [13] of the same molecule?
Its TGI is 0.787 µM.

What about the TGI [14] of the same molecule?
Its TGI is 1.18 µM.

What about the TGI [15] of the same molecule?
Its TGI is 0.237 µM.

And the TGI [16]?
The TGI was 0.503 µM.

What about the TGI [17] of the same molecule?
The TGI was 0.588 µM.

What about the TGI [18] of the same molecule?
The TGI was 1.52 µM.

And the TGI [19]?
Its TGI is 1.58 µM.

What about the TGI [20] of the same molecule?
The TGI was 1.79 µM.

What about the TGI [21] of the same molecule?
Its TGI is 1.04 µM.

What about the TGI [22] of the same molecule?
The TGI was 0.582 µM.

And the TGI [23]?
The TGI was 1.45 µM.

And the TGI [24]?
The TGI was 0.624 µM.

What about the TGI [25] of the same molecule?
Its TGI is 1.44 µM.

What about the TGI [26] of the same molecule?
The TGI was 1.11 µM.

What about the TGI [27] of the same molecule?
The TGI was 1.18 µM.

And the TGI [28]?
The TGI was 1.01 µM.

What about the TGI [29] of the same molecule?
The TGI was 0.687 µM.

And the TGI [30]?
The TGI was 1.82 µM.

With `Cc1cc(N(CCC#N)S(=O)(=O)c2ccccc2)ccc1C=O` as the molecule, how does the TGI [31] read?
Its TGI is greater than 100 µM.

And the TGI [2]?
The TGI was greater than 100 µM.

And the TGI [32]?
Its TGI is greater than 100 µM.

What about the TGI [33] of the same molecule?
The TGI was greater than 100 µM.

And the TGI [34]?
Its TGI is greater than 100 µM.

What about the TGI [3] of the same molecule?
Its TGI is greater than 100 µM.

And the TGI [4]?
The TGI was greater than 100 µM.

And the TGI [35]?
Its TGI is greater than 100 µM.

And the TGI [5]?
Its TGI is greater than 100 µM.

What about the TGI [36] of the same molecule?
Its TGI is greater than 100 µM.

What about the TGI [37] of the same molecule?
Its TGI is greater than 100 µM.

What about the TGI [38] of the same molecule?
Its TGI is greater than 100 µM.

What about the TGI [39] of the same molecule?
The TGI was greater than 100 µM.

What about the TGI [40] of the same molecule?
The TGI was greater than 100 µM.

What about the TGI [7] of the same molecule?
The TGI was greater than 100 µM.

And the TGI [8]?
Its TGI is greater than 100 µM.

And the TGI [9]?
Its TGI is greater than 100 µM.

And the TGI [41]?
The TGI was greater than 100 µM.

What about the TGI [42] of the same molecule?
Its TGI is greater than 100 µM.

What about the TGI [43] of the same molecule?
The TGI was greater than 100 µM.

What about the TGI [44] of the same molecule?
Its TGI is greater than 100 µM.

What about the TGI [11] of the same molecule?
Its TGI is greater than 100 µM.

What about the TGI [45] of the same molecule?
The TGI was greater than 100 µM.

What about the TGI [46] of the same molecule?
Its TGI is greater than 100 µM.

What about the TGI [12] of the same molecule?
Its TGI is greater than 100 µM.

And the TGI [47]?
The TGI was greater than 100 µM.

And the TGI [48]?
Its TGI is greater than 100 µM.

What about the TGI [13] of the same molecule?
Its TGI is greater than 100 µM.

And the TGI [49]?
Its TGI is greater than 100 µM.

And the TGI [14]?
Its TGI is greater than 100 µM.

And the TGI [15]?
The TGI was greater than 100 µM.

What about the TGI [50] of the same molecule?
Its TGI is greater than 100 µM.

What about the TGI [51] of the same molecule?
The TGI was greater than 100 µM.

What about the TGI [16] of the same molecule?
Its TGI is greater than 100 µM.

What about the TGI [52] of the same molecule?
The TGI was greater than 100 µM.

And the TGI [17]?
Its TGI is greater than 100 µM.

And the TGI [18]?
The TGI was greater than 100 µM.

What about the TGI [19] of the same molecule?
The TGI was greater than 100 µM.

And the TGI [53]?
The TGI was greater than 100 µM.

And the TGI [20]?
Its TGI is greater than 100 µM.

And the TGI [54]?
The TGI was greater than 100 µM.

And the TGI [55]?
Its TGI is greater than 100 µM.

And the TGI [21]?
The TGI was greater than 100 µM.

What about the TGI [22] of the same molecule?
The TGI was greater than 100 µM.

And the TGI [24]?
The TGI was greater than 100 µM.

And the TGI [25]?
Its TGI is greater than 100 µM.

And the TGI [26]?
The TGI was greater than 100 µM.

What about the TGI [27] of the same molecule?
Its TGI is greater than 100 µM.

And the TGI [28]?
Its TGI is greater than 100 µM.

What about the TGI [29] of the same molecule?
Its TGI is greater than 100 µM.

What about the TGI [56] of the same molecule?
The TGI was greater than 100 µM.

What about the TGI [57] of the same molecule?
The TGI was greater than 100 µM.

What about the TGI [58] of the same molecule?
The TGI was greater than 100 µM.

What about the TGI [59] of the same molecule?
The TGI was greater than 100 µM.

What about the TGI [30] of the same molecule?
The TGI was greater than 100 µM.
